Consider four molecules from patent EP3002287B1, “Thiochromeno[2,3-c]quinolin-12-one derivatives and their use as topoisomerase inhibitors” (National Defense Medical Center, priority 2014, dated 2016).

For one assay, the target named is T1, TOP II (Homo sapiens, UniProt P11388).
T1 construct: purchased TopoGEN TG-2000H-1
Description: Topoisomerase II activity assay (TOP II-catalyzed relaxation of plasmid DNA). The settings on record: primary assay at 25 and/or 50 µM. It counts as biochemical. The protocol: We also performed TOP 11-catalyzed relaxation of plasmid DNA assays(Fig. 5-7) to evaluate if compounds could inhibit TOP II. […] The IC50 value of compounds 7, N7, N8, N14, N15, N18, and N19 were about 10, 10, 1, 10, 5, 1, and 1 µM, respectively (detect by TopoGEN TG2005H, TG-2000H-1).

Another assay has as its target T2, TOP I (Homo sapiens, UniProt P11387).
T2 construct: purchased TopoGEN TG2005H
T2 sequence (P11387 1-765): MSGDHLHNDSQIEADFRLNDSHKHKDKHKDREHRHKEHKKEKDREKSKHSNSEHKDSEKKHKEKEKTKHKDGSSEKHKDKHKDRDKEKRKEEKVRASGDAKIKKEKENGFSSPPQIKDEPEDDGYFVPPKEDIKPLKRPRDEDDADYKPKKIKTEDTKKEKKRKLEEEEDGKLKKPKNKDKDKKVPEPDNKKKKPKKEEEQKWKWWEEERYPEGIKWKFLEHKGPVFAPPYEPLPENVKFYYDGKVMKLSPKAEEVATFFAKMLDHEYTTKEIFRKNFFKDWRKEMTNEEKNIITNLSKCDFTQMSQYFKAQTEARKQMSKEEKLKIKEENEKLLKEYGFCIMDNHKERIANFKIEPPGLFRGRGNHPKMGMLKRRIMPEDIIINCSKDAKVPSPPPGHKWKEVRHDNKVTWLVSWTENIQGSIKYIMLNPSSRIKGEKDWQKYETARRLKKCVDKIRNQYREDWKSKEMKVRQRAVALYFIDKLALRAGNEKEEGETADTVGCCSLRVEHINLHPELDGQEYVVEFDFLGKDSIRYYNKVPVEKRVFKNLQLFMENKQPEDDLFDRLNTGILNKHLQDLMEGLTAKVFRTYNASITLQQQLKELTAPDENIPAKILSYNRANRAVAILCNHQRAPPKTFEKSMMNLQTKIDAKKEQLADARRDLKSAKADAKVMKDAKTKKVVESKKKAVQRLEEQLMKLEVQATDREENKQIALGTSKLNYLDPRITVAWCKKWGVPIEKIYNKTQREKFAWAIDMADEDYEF
Nature of the assay: Topoisomerase I activity assay (DNA relaxation catalyzed by TOP I). It counts as biochemical. To be noted: primary assay at 25 and/or 50 µM. Here is the method:
According to the cell cytotoxicity, compounds 5, 7, 8, 16, 19, N2, N7, N8, N9, N14-N19, and N25 were also selected for primary TOP I and II activities assays at 25 and/or 50 µM (Fig. 2-4).

The next assay relates to DU-145. Nature of the assay: MTT assay for cell cytotoxicity. The settings on record: Homo sapiens, 72 h, at least three independent experiments, read-out: MTT assay (IC50 ± SD) DU-145. It counts as cell-based, human. Here is the method: (§1) All of synthesis compounds were evaluated cell cytotoxicity by using MTT colorimetric assay on PC-3 and DU-145 cell lines. DU-145 and PC-3 are human hormone-refractory (androgen-independent) prostatic cancer cell lines from American Type Culture Collection (HTB-81™, ATCC, Rockville, MD)^125 and Bioresource Collection and Research Center (60122, BCRC, Taiwan)^126, respectively. Two of the "classical" cell lines were cultivated in RPMI-1640 medium supplemented with 5% fetal bovine serum (v/v), 100 U/mL penicillin, and […] streptomycin. Approximately 2 x 10^3 cells were seeded into each well of a 96-well plate and incubated in 5% CO2 at 37 °C for 24 h. To evaluate the in vitro cytotoxicity, all the synthetic compounds were dissolved in DMSO, prepared immediately before the experiments and diluted into the complete medium before being added to each well of a 96-well plate. Each compound was then added to the culture medium for designated various concentrations (0.15, 0.5, 1.5, 5, 15 µM). After 72 h, an amount of 100 µL of MTT (1 mg/mL) was added to each well, and the samples were incubated at 37 °C for 4 h. After removing the MTT solution, 100 µL of DMSO was added to each well and incubated at 37 °C for another 20 mins. The absorbency at 560 nm was measured by using an ELISA reader.
(§2) Results are expressed as mean values of at least three independent experiments. The IC50 values of testing compounds were described in Table 1. Table1. Effects of 10-Chloro-12H-thiochromeno[2,3-c]quinolin -12-one derivatives on cytotoxicity by MTT assay.
For orientation: Tetrazolium assays rely on reduction of a dye to a coloured formazan, in cell work by metabolically active cells.

A further assay relates to PC-3. Nature of the assay: MTT assay for cell cytotoxicity. It counts as cell-based, human. To be noted: Homo sapiens, 72 h, at least three independent experiments, read-out: MTT assay (IC50 ± SD) PC-3. Here is the method: as §1, §2

T1 sequence (P11388 whole entry): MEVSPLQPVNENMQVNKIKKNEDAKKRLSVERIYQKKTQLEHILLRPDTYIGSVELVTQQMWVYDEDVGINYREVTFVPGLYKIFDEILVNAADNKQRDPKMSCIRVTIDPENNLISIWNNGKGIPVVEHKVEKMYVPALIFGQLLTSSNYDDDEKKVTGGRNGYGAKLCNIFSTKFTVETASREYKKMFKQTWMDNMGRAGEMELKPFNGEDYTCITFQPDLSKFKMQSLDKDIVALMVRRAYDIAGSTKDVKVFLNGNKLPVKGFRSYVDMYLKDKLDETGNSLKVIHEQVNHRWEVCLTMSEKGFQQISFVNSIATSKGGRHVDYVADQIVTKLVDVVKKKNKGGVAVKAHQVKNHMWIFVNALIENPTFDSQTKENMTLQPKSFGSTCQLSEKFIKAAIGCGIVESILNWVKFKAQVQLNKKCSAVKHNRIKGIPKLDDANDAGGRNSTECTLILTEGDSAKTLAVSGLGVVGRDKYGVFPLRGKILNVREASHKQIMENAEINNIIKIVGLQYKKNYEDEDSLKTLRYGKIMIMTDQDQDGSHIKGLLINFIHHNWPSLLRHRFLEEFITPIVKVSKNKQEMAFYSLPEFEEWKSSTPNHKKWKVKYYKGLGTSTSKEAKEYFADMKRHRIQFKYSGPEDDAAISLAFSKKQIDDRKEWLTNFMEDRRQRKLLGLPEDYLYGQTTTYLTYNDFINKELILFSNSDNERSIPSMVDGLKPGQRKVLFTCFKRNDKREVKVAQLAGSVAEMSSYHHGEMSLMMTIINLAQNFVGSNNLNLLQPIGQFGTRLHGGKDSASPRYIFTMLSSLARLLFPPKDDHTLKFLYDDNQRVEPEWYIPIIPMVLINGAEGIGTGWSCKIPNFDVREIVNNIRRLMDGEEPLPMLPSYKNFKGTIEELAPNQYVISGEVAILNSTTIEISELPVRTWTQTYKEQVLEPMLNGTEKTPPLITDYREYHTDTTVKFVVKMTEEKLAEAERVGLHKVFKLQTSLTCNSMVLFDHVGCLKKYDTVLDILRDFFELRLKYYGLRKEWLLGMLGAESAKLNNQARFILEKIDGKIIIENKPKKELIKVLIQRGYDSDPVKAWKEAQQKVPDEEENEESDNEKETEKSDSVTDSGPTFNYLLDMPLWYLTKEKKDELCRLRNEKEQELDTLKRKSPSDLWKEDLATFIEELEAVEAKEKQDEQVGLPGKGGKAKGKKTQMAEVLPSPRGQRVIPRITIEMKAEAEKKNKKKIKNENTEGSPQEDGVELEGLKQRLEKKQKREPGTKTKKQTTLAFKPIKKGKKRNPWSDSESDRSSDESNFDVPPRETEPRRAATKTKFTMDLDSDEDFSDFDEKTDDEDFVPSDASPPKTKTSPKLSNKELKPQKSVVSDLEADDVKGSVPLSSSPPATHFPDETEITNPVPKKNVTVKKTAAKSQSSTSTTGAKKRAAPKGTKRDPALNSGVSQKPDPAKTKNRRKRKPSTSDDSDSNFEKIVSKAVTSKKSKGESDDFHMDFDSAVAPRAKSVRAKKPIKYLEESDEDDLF

Take `O=c1c2cc(Cl)ccc2sc2c(NCCNCCO)nc3ccccc3c12` [Compound N15, 10-Chloro-6-((2-((2-hydroxyethyl)amino)ethyl)amino)-12H-thio chromen[2,3-c]quinolin-12-one]: the “inhibitory effects on TOP II compared with the positive agent VP-16” value at TOP II is “more potent inhibitory effects than the positive agent VP-16”. Also, on TOP I, the “inhibitory effects in TOP I activity assay compared with CPT” value (“inhibitory effects … compared with CPT” below) is given as “more potent inhibitory effects than CPT”. In addition, the IC50 (in general, the concentration at which inhibition is half-maximal) came out at 3810 ± 1880 nM in the assay on DU-145 and 3440 ± 1810 nM with PC-3.

In the case of `CCN(CC)CCCNc1nc2ccccc2c2c(=O)c3cc(Cl)ccc3sc12` [Compound N18, 10-Chloro-6-((3-(diethylamino)propyl)amino)-12H-thiochrome no[2,3-c]quinolin-12-one], the “inhibitory effects on TOP II compared with the positive agent VP-16” value on TOP II is “more potent inhibitory effects than the positive agent VP-16”. Further, the “inhibitory effects … compared with CPT” value on TOP I is “more potent inhibitory effects than CPT”. Besides, the values for the concentration for half-maximal inhibition (IC50) with DU-145 and in the assay with PC-3 were 3530 ± 1050 nM and 2220 ± 210 nM, respectively.

Turning to `CN(C)CCNc1nc2ccccc2c2c(=O)c3cc(Cl)ccc3sc12` [Compound N7, 10-Chloro-6-((2-(dimethylamino)ethyl)amino)-12H-thiochrome no[2,3-c]quinolin-12-one], the “inhibitory effects on TOP II compared with the positive agent VP-16” value at TOP II is on record as “more potent inhibitory effects than the positive agent VP-16”. In addition, the “inhibitory effects … compared with CPT” value against TOP I is on record as “more potent inhibitory effects than CPT”. In addition, the IC50 was found to be 5940 ± 3450 nM with DU-145 and 2250 ± 610 nM with PC-3.

In the case of `NCCNc1nc2ccccc2c2c(=O)c3cc(Cl)ccc3sc12` [Compound N14, 6-((2-Aminoethyl)amino)-10-chloro-12H-thiochromeno[2,3-c]q uinolin-12-one], at TOP II, the “inhibitory effects on TOP II compared with the positive agent VP-16” value is reported as “more potent inhibitory effects than the positive agent VP-16”. The “inhibitory effects … compared with CPT” value against TOP I is “more potent inhibitory effects than CPT”. The IC50 in the assay on DU-145 is 1800 ± 400 nM; in the assay with PC-3 it was 1640 ± 550 nM.
